Source: patent publication US6348201B2, “External composition for skin comprising sphingoglycolipid” (Kibun Food Chemifa Co., Ltd., priority 1997, dated 2002)

System: hairless mice (Skh:hr-1)
Assay: Test for evaluating moisturizing and skin roughness prevention effects: transcutaneous transpiration measured with a hydrograph
Assay type: in vivo
Conditions: 10th day, average of five mice, relative to control (0.5% Triton X-150, 9 g/m^2/h) as 100; Triton X-150 pretreated, middle-wavelength UV 0.15 J/cm^2, samples applied once a day on rear back
Experimental: Twenty male hairless mice of 9-week old (Skh:hr-1, Nihon SLC) were treated with 0.5% Triton X-150 (50 μl) in a circular area of 2.5 cm diameter on their rear backs. The once-a-day application was continued for 5 days. On the 6th day and thereafter, middle-wavelength UV light was irradiated at a dose of 0.15 J/cm^2 using a SE lamp (manufactured by Toshiba Medical Instruments Co., Ltd.), and Samples 1 to 5 (dissolved in 0.5% Triton X-150) listed below and control sample (0.5% Triton X-150) were applied. These procedures were followed once a day and continued up to the 10th day. Five hairless mice were subjected to each test for Samples or the control.
After the middle-wavelength UV irradiation and the sample application were completed on the 10th day, amount of transcutaneous transpiration was measured using a hydrograph (model AMU-3: manufactured by Fauchon Co., Ltd.) to determine an average value for the five mice. Results were shown in the table below, where the values are expressed in relative values assuming the control (9 g/m^2/h) as 100.

Work on `CCCCCCCCCCCCC/C=C\C(O)C(CO)NC(=O)O[C@@H]1O[C@H](CO)[C@H](O)[C@H](O)[C@H]1O` (stereo partly drawn) [Sample 5 (comparison), Galactocerebroside] yielded a Relative transcutaneous transpiration of 91.

Ganglioside [Sample 4 (comparison)] gave a Relative transcutaneous transpiration of 89.

“Glyceroglycolipid [Sample 3 (comparison)]” gave a Relative transcutaneous transpiration of 123.
